Here are results for 14 compounds from BindingDB's records for doi:10.1021/jm00392a014 (1987).

Structures are written as SMILES.

Target in the first experiment: not listed separately
Put plainly: Compound was tested for inhibition of Leucine aminopeptidase isolated from porcine kidney; Inhibitor exhibits slow-binding behavior(k on <=1000Me-1Se-1).
For `CCCCCCCC(N)P(=O)(O)O` (centres undefined) [1-Ammonium-octane-1-phosphonic acid anion], the Ki came to 470 nM. As to `CC(C)C(N)P(=O)(O)O` (centres undefined) [1-amino-2-methylpropylphosphonic acid], the affinity, expressed as Ki, was 1200 nM.

Regarding `CCC(N)P(=O)(O)O` (centres undefined) [1-aminopropylphosphonic acid], the affinity corresponds to a Ki of 3600 nM.

For the next experiment, the target named is Cytosol aminopeptidase (Sus scrofa) (UniProt P28839). The description is as above.
Sequence of Cytosol aminopeptidase (Sus scrofa) (P28839 whole entry, looked up): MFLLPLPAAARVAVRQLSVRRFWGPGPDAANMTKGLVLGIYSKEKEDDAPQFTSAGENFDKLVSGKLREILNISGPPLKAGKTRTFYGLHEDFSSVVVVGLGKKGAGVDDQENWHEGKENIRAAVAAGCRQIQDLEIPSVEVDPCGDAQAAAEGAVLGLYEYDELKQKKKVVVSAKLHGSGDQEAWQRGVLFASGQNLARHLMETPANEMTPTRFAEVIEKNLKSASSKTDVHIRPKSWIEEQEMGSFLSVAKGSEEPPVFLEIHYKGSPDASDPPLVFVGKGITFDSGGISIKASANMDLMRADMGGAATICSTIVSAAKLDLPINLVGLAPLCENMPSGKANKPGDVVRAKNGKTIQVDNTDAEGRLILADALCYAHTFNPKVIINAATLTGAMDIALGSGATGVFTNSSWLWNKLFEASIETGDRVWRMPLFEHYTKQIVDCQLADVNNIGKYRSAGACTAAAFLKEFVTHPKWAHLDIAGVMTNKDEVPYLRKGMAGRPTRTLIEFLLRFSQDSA
In turn, `C[C@H](N)P(=O)(O)O` [1-Ammonium-ethanephosphonic acid anion] registered a Ki of 240 µM. The compound `CC(C)CC(N)P(N)(=O)C(=O)N[C@@H](CC(C)C)C(=O)O` (stereo partly drawn) [1-[amino({[(1S)-1-carboxylateanion-3-methylbutyl]amino}carbonyl)phosphoryl]-3-methylbutan-1-aminium] came in with a Ki of 40 µM. `CCCCCC(N)P(=O)(O)O` (centres undefined) [1-aminohexylphosphonic acid]: the affinity corresponds to a Ki of 1 µM.

In turn, `COP(=O)(C(=O)N[C@@H](CC(C)C)C(=O)O)C(N)CC(C)C` (stereo partly drawn) [2-(1-Ammonium-3-methylbutylmethoxyphosphorylcarbonylamino)-4-methyl-(2S)-pentanoate] returned a Ki of 1650 µM. This Ki is about 1600-fold higher than that of the compound before. Same read-out and setting: the same measure for `CC(C)CCN` [3-Methyl-butylamine]: over 50000 µM; for `COP(=O)(O)C(N)Cc1ccccc1` (centres undefined) [(1-Ammonium-2-phenyl-ethyl)-phosphonic acid monomethyl ester]: 43 µM; for `COP(=O)(O)C(N)CC(C)C` (centres undefined) [(1-Ammonium-3-methyl-butyl)-phosphonic acid monomethyl ester]: 320 µM. On the same count and under the same terms, next, `CC(C)CCP(=O)(O)O` [(3-Methyl-butyl)-phosphonic acid]: 775 µM. The compound `N[C@H](Cc1ccccc1)P(=O)(O)O` [(S)-1-Ammonium-2-phenyl-ethanephosphonic acid anion] had a Ki of 15.4 µM. Against the preceding compound, the Ki is about 50-fold lower. `NCP(=O)(O)O` [Ammonium-methanephosphonic acid anion] had an inhibition constant (Ki) of 1040 µM. Same read-out and setting: next, `N[C@@H](Cc1ccccc1)P(=O)(O)O` [[(1R)-1-amino-2-phenylethyl]phosphonic acid]: 0.42 µM.
